What was measured:
[1] = target: IRE1α RNase (Homo sapiens (Human), UniProt O75460); assay: Biochemical assay, inhibition of RNase activity of IRE1α
Experimental: Test compounds were prepared on the day of assay and dispensed using D300 digital dispenser as a 10-point ½ log dilution series in duplicate, normalized to a final DMSO concentration of 4%. Test compounds were pre-incubated for 30 min at room temperature with IRE1α kinase (E31-11G from Signal Chem) in 2.5 μL of assay buffer.

[2] = test system: XBP-1 splicing in ARPE-19 cells or apoptosis of INS-1 cells expressing mIRE-1; assay: Cellular assay (XBP1 splicing assay or apoptosis assay); assay type: cell-based; details: data are for the XBP1 splicing assay or the apoptosis assay (not specified per compound)
Experimental: ARPE-19 cells stably expressing XBP-1 (a.a. 1-376) with nano-luciferase gene sequence linked so it is in frame when XBP-1 is spliced, were cultured in F12 media, 10% FBS, 0.044% sodium bicarbonate, 150 μg/ml hygromycin B and seeded for assays at 5,000 cells in 384 well plates in culture media without hygromycin B and incubated at 37° C./5% CO2. […] After further incubation of 30 minutes thapsigargin was added (final concentration 150 nM) and then another 4 hour incubation. A NanoLuc luciferase assay (Promega) was used according to the manufacturer's instructions to detect the luciferase and luminescence measured on a luminometer (EnVision, PerkinElmer).
Doxycycline (final concentration 100 nM) was added and plates incubated for a further 72 hours. To determine the proportion of apoptotic cells Hoechst 33342 (final concentration 10 μg/mL) was added, then after 30 minutes incubation cells imaged and analyzed on an InCell high content imager.

Chain of IRE1α RNase (O75460 468-977): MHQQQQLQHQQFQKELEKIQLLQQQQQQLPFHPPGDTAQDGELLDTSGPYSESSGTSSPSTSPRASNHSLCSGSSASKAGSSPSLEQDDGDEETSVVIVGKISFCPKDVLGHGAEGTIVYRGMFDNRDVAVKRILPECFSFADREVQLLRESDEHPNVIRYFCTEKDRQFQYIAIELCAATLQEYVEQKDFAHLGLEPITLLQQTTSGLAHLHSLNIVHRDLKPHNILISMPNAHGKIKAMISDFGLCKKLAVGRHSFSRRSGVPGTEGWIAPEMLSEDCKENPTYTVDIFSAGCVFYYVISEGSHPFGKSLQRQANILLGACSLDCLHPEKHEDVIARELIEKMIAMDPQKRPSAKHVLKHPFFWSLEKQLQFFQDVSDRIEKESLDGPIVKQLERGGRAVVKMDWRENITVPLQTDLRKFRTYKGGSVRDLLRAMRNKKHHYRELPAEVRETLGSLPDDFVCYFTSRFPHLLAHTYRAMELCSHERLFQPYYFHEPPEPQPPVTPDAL

IC50 [1] [nM] | IC50 [2] [nM] | SMILES
25 | 25 | CC(C)c1nc(-c2ccc(NS(=O)(=O)c3ccccc3F)c(F)c2)c2c(N)ncc(C3=CCC(NCCF)CC3)n12 (centres unmarked) [Example 229, N-(4-(8-amino-5-(4-((2-fluoroethyl)amino)cyclohex-1-en-1-yl)-3-isopropylimidazo[1,5-a]pyrazin-1-yl)-2-fluorophenyl)-2-fluorobenzenesulfonamide]
213 | 330 | CC(C)c1nc(-c2ccc(NS(=O)(=O)c3ccccc3Cl)c(F)c2)c2c(N)ncc(C3=CCC(NCC(F)F)CC3)n12 (centres unmarked) [Example 226, N-(4-(8-amino-5-(4-((2,2-difluoroethyl)amino)cyclohex-1-en-1-yl)-3-isopropylimidazo[1,5-a]pyrazin-1-yl)-2-fluorophenyl)-2-chlorobenzenesulfonamide]
6 | 10 | CC(C)c1nc(-c2cc(F)c(NS(=O)(=O)c3ccccc3Cl)cc2F)c2c(N)ncc(C3=CCC(NCCF)CC3)n12 (centres unmarked) [Example 228, N-(4-(8-amino-5-(4-((2-fluoroethyl)amino)cyclohex-1-en-1-yl)-3-isopropylimidazo[1,5-a]pyrazin-1-yl)-2,5-difluorophenyl)-2-chlorobenzenesulfonamide]
60 | 200 | CC(C)c1nc(-c2ccc(NS(=O)(=O)c3ccccc3Cl)c(F)c2)c2c(N)ncc(C3=CCC(NC4COC4)CC3)n12 (centres unmarked) [Example 232, N-(4-(8-amino-3-isopropyl-5-(4-(oxetan-3-ylamino)cyclohex-1-en-1-yl)imidazo[1,5-a]pyrazin-1-yl)-2-fluorophenyl)-2-chlorobenzenesulfonamide]

Source: US11649237B2, “Substituted imidazo[1,5-a]pyrazines for IRE1 inhibition” (Optikira LLC, priority 2017, dated 2023)
